Source: US20170327786A1 (Biogen MA Inc., priority 2014, published 2017)
Where two headings read alike, the source gives them in different places.

Key:
[1] = tested on: Cell Line A
Procedure: Cell Line A expressed the polypeptide Neublastin. […] Feed medium was added daily from Day 2 to Day 12 to the cell culture. […] Initial cell density was one million cells (1e6).

[2] = tested on: Cell Line B
Procedure: Cell Line B expressed the polypeptide Lingo. […] Feed medium was added daily from Day 1 to Day 15 to the cell culture. […] Initial cell density was one million cells (1e6).

[3] = tested on: Cell Line B; remark: listed apart in the source
[4] = tested on: Cell Line B; experiment: Alternative antioxidants as replacement for hypotaurine, Cell Line B waste accumulation and culture performance; type: cell-based
Procedure: Taurine is the by-product of hypotaurine metabolism. Therefore, cell culture performance when 8 mM taurine was added to the feed medium was compared to cell culture performance when 8 mM of hypotaurine was added to the feed medium. Initial cell density was one million cells (1e6).
Cysteamine is a precursor of hypotaurine. […] Initial cell density was one million cells (1e6). The effects of glutathione, another type of antioxidant, were also explored.

[5] = tested on: CHO cells; experiment: Fed-batch culture of CHO cells with GABA-supplemented feed medium; type: cell-based, Chinese hamster
Procedure: The impact of gamma-aminobutyric acid (GABA) levels in the culture on cell density (growth), viability, and lactate concentration was evaluated in CHO cells in a fed-batch process (FIG. 9).
Cryopreserved CHO cells were thawed and maintained in 500 mL, 1000 mL or 3000 mL shake flasks with 100 mL, 200 mL or 1000 mL working volumes using cell culture medium CM3 and were passaged every 2 to 4 days. For maintenance cultures, the incubator was controlled at 36° C. and 5% CO2. A 5 liter (L) glass Applikon vessels using Finesse TruBio DV controllers (Finesse Solutions, San Jose, Calif.) were used for the fed-batch process. Bioreactors were seeded with an initial working volume of 2.5 L at a constant seed. For the control process, feed medium, CF2b, was given on day 3, day 5 and daily thereafter (starting on day 6) until the day before harvest and culture termination. The control process lasted 15 days with harvest and culture termination on day 15. CF2b is designated as a complete feed, comprised of all necessary nutritional elements including glucose, amino acids, vitamins, and metals. For GABA culture, feed medium was supplemented with 8 mM of GABA. The GABA culture lasted 17 days with harvest and culture termination on day 17. The complete feed amount was calculated as a predetermined fixed percentage based on culture volume. Glucose is maintained by the feeding strategy above 2 g/L in general by the bolus feeds and is not limiting. Culture temperature was set at 35° C. and medium pH was controlled at 7.1±0.2 by the addition of either 1 M sodium carbonate or CO2 gas. Dissolved oxygen (DO) was maintained at 30% with air sparge, enriched with oxygen as necessary, through a drilled hole sparger. Agitation was maintained between 200 and 400 rpm throughout the culture to limit total gas flow. An air overlay was maintained between 0.005 and 0.02 gas volume flow per unit of liquid volume per minute (vvm).

[6] = tested on: Cell Line B; experiment: Fed-batch culture of Cell Line B with hypotaurine feed medium; type: cell-based
Procedure: The control feed medium contained 0 mM hypotaurine. The hypotaurine feed medium contained 8 mM hypotaurine. […] The concentration of hypotaurine in the bioreactor on Day 16 was approximately 2.7 mM. […] Initial cell density was one million cells (1e6). The effects of hypotaurine were evident starting on Day 10.

[7] = 9 mM choline chloride feed medium vs control feed with 3 mM choline chloride
[8] = 18 mM choline chloride feed medium vs control feed with 3 mM choline chloride
[9] = feed medium supplemented with 8 mM GABA vs control
[10] = 8 mM hypotaurine feed medium vs control feed with 0 mM hypotaurine

C[N+](C)(C)CCO.[Cl-] [Choline, choline chloride]
day from which the effects were evident ([1]; 9 mM choline chloride feed medium): 3 days | ammonium accumulation [1, 7]: lower | viability [1, 7]: higher | titer ([1]; 9 mM choline chloride feed medium vs control feed with 3 mM choline chloride, Neublastin): higher | growth (cell density) ([1]; 9 mM choline chloride feed medium vs control feed with 3 mM choline chloride, fed daily Day 2 to Day 12): higher | Day 3 (Effective) Choline Conc. ([1]; concentration in culture on Day 3, when effects became evident): 0.90 mM | day from which the effects were evident ([2]; 18 mM choline chloride feed medium): 9 days | ammonium accumulation [2, 8]: lower | viability [2, 8]: higher | titer ([2]; 18 mM choline chloride feed medium vs control feed with 3 mM choline chloride, Lingo): slightly higher | growth (cell density) ([2]; 18 mM choline chloride feed medium vs control feed with 3 mM choline chloride, fed daily Day 1 to Day 15): higher | Day 9 (Effective) Choline Conc. ([2]; choline used alone, concentration in culture on Day 9, when effects became evident): 4.65 mM | Effective Choline Conc. ([3]; Day 6, high seed): 4.0 mM | culture viability crash ([3]; high seed 8×10^6 vc/mL, after day 12): occurred after day 12

NCCS [Cysteamine, cysteamine]
cell culture performance (growth, viability, ammonium concentration, titer) as replacement for hypotaurine ([4]; 3 mM cysteamine/18 mM choline chloride in feed vs 8 mM hypotaurine and 18 mM choline chloride): not able to serve as replacements for hypotaurine

NCCCC(=O)O [GABA, Gamma-Aminobutyric Acid]
growth (viable cell density) ([5]; feed medium CF2b supplemented with 8 mM GABA vs unsupplemented control feed): higher | delay of the onset of a high lactate phenotype compared to control ([5]; feed medium supplemented with 8 mM GABA): about 2 days | lactate accumulation [5, 9]: lower | viability [5, 9]: higher | culture duration (harvest and culture termination) ([5]; feed medium supplemented with 8 mM GABA, control process lasted 15 days): 17 days

NCCS(=O)O [Hypotaurine, hypotaurine]
day from which the effects were evident ([6]; 8 mM hypotaurine feed medium): 10 days | ammonium accumulation [6, 10]: lower | titer [6, 10]: higher | viability [6, 10]: higher | growth (cell density) ([6]; 8 mM hypotaurine feed medium vs control feed with 0 mM hypotaurine, fed daily Day 1 to Day 15): higher | Day 10 (Effective) Hypotaurine Conc. ([6]; hypotaurine used alone, concentration in culture on Day 10, when effects became evident): 2.5 mM

N[C@@H](CCC(=O)N[C@@H](CS)C(=O)NCC(=O)O)C(=O)O [glutathione]
cell culture performance (growth, viability, ammonium concentration, titer) as replacement for hypotaurine ([4]; 1.3 mM glutathione/18 mM choline chloride in feed vs 8 mM hypotaurine and 18 mM choline chloride): not able to serve as replacements for hypotaurine

NCCS(=O)(=O)O [taurine]
cell culture performance (growth, viability, ammonium concentration, titer) as replacement for hypotaurine ([4]; 8 mM taurine in feed medium vs 8 mM hypotaurine in feed medium): not able to serve as a replacement for hypotaurine
